In patent US9776995B2, “Bicyclic sulfonamide compounds as sodium channel inhibitors” (AMGEN INC., priority 2013, dated 2017):
Read-outs that look alike come from different tables or passages of the source.

Molecular target: Nav 1.7 (Homo sapiens (Human), UniProt Q15858)
Test: Nav 1.7 in vitro PX assay (PatchXpress whole cell voltage clamp);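 note: holding potential set for 20 to 50% inactivation, sodium current evoked by a 20 ms step to −10 mV, peak current inhibition read after compound exposure, 3–5 cells per concentration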
Assay type: cell-based
[1] = HEK 293 cells stably transfected with human Nav1.7, PatchXpress, partially inactivated state

Sequence of Nav 1.7 (Q15858 whole entry): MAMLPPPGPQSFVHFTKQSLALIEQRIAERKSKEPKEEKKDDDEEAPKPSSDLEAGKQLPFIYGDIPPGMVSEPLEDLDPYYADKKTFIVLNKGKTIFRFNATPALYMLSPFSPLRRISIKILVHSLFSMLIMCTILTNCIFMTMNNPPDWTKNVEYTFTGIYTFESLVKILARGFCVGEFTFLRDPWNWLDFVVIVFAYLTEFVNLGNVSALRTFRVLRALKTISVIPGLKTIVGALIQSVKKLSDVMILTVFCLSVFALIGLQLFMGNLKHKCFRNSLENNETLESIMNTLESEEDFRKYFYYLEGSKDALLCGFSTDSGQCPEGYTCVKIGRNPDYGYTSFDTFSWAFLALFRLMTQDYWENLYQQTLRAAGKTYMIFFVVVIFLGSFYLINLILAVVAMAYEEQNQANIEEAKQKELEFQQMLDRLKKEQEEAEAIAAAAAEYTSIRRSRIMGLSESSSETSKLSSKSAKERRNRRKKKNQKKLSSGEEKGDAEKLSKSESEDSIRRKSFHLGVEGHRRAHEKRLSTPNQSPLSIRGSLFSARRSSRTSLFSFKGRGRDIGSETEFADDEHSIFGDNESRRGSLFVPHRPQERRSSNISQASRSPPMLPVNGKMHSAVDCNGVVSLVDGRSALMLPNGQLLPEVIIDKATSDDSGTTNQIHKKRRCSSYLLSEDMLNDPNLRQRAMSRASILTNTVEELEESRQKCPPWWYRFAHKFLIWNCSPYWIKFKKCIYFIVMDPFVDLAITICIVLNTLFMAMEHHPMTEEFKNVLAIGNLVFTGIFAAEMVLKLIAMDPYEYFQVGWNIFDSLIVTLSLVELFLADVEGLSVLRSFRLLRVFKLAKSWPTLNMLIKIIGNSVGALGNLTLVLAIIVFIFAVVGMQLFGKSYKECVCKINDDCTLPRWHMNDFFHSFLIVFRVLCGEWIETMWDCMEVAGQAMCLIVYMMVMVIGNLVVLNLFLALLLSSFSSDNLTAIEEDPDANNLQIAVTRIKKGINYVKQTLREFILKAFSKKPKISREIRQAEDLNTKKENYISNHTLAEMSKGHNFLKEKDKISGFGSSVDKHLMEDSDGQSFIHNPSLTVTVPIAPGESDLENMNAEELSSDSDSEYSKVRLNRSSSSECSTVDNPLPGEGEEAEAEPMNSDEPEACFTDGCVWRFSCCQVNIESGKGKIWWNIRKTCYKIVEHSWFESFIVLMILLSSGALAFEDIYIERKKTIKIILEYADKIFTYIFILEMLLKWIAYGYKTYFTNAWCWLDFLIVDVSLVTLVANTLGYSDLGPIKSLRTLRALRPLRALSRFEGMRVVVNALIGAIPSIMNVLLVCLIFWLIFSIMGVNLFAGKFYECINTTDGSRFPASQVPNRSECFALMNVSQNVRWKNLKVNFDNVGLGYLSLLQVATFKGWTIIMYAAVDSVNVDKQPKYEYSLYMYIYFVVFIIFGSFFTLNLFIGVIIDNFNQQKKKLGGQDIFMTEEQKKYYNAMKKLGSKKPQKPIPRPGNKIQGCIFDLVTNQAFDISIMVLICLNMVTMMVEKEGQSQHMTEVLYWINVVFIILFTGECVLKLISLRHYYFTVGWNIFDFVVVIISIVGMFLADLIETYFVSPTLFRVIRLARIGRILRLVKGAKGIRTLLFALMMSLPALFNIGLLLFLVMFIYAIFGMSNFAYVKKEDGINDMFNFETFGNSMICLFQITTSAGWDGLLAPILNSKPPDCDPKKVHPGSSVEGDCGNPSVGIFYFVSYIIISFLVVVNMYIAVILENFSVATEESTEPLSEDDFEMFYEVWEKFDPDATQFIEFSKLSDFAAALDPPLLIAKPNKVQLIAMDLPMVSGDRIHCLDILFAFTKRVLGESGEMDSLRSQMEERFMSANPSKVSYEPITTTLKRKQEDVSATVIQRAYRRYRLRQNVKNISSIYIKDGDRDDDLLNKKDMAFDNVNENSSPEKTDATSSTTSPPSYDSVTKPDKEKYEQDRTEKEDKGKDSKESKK

`COc1cc(-c2cccc(Cl)c2)c(F)cc1-c1ncnc2cc(S(=O)(=O)Nc3ccsn3)ccc12` [Example 377, 4-(3′-Chloro-2-fluoro-5-methoxy-4-biphenylyl)-N-3-isothiazolyl-7-quinazolinesulfonamide] gave an IC50 [1] of 90 nM.

`COc1cc(-c2cccc(F)c2)c(Cl)cc1-c1ncnc2cc(S(=O)(=O)Nc3cscn3)ccc12` [Example 378, 4-(2-chloro-3′-fluoro-5-methoxy-[1,1′-biphenyl]-4-yl)-N-(thiazol-4-yl)quinazoline-7-sulfonamide 2,2,2-trifluoroacetate] was tested, and the IC50 was 231 nM.

`COc1cc(-c2ccc(Cl)c(C)c2)c(Cl)cc1-c1nccc2cc(S(=O)(=O)Nc3nncs3)ccc12` [Example 379, 1-(2,4′-dichloro-5-methoxy-3′-methyl-4-biphenylyl)-N-1,3,4-thiadiazol-2-yl-6-isoquinolinesulfonamide] gave an IC50 [1] of 14 nM.

Molecule `COc1cc(F)c(-c2cncc(F)c2)cc1-c1nccc2cc(S(=O)(=O)Nc3ccon3)ccc12` [Example 392, 1-(4-fluoro-5-(5-fluoropyridin-3-yl)-2-methoxyphenyl)-N-(isoxazol-3-yl)isoquinoline-6-sulfonamide 2,2,2-trifluoroacetate] has an IC50 [1] of 491 nM.

`COc1cc(-c2cccc(F)c2)c(F)cc1-c1nc(Cl)cc2cc(S(=O)(=O)Nc3ccon3)ccc12` [Example 393, 3-CHLORO-1-(2,3′-DIFLUORO-5-METHOXY-4-BIPHENYLYL)-N-3-ISOXAZOLYL-6-ISOQUINOLINESULFONAMIDE] was tested, and the IC50 [1] was 157 nM.

For `COc1cc(-c2cccc(F)c2)c(Cl)cc1-c1[nH]c(=O)cc2cc(S(=O)(=O)Nc3ccon3)ccc12` [Example 394, 1-(2-chloro-3′-fluoro-5-methoxy-[1,1′-biphenyl]-4-yl)-N-(isoxazol-3-yl)-3-oxo-2,3-dihydroisoquinoline-6-sulfonamide 2,2,2-trifluoroacetate], the IC50 [1] was 41 nM.

`COc1cc(-c2cccc(F)c2)c(Cl)cc1-c1c(=O)[nH]cc2cc(S(=O)(=O)Nc3ccon3)ccc12` [Example 398, 4-(2-CHLORO-3′-FLUORO-5-METHOXY-[1,1′-BIPHENYL]-4-YL)-N-(ISOXAZOL-3-YL)-3-OXO-2,3-DIHYDROISOQUINOLINE-7-SULFONAMIDE] was tested, and the IC50 [1] was 27 nM.

Molecule `COc1cc(F)c(-c2ccccn2)cc1-c1nccc2cc(S(=O)(=O)Nc3ccon3)ccc12` [Example 399] has an IC50 [1] of 28400 nM.

In the case of `COc1cc(-c2cccc(F)c2)c(Cl)cc1-c1c(OC)ncc2cc(S(=O)(=O)Nc3ccon3)ccc12` [Example 401, 4-(2-CHLORO-3′-FLUORO-5-METHOXY-[1,1′-BIPHENYL]-4-YL)-N-(ISOXAZOL-3-YL)-3-METHOXYISOQUINOLINE-7-SULFONAMIDE], the IC50 [1] is reported as 613 nM.

Work on `COc1cc(-c2cccc(F)c2)c(Cl)cc1-c1c(=O)n(C)cc2cc(S(=O)(=O)Nc3ccon3)ccc12` [Example 402, 4-(2-CHLORO-3′-FLUORO-5-METHOXY-[1,1′-BIPHENYL]-4-YL)-N-(ISOXAZOL-3-YL)-2-METHYL-3-OXO-2,3-DIHYDROISOQUINOLINE-7-SULFONAMIDE] yielded an IC50 [1] of 39 nM.

Work on `COc1cc(-c2cc(F)cc(F)c2)c(Cl)cc1-c1ncnc2cc(S(=O)(=O)Nc3ncccn3)ccc12` [Example 435, 4-(2-CHLORO-3′,5′-DIFLUORO-5-METHOXY-[1,1′-BIPHENYL]-4-YL)-N-(PYRIMIDIN-2-YL)QUINAZOLINE-7-SULFONAMIDE] yielded an IC50 [1] of 86 nM.

`COc1cc(-c2cccc(Cl)c2)c(Cl)cc1-c1ncnc2cc(S(=O)(=O)Nc3ncccn3)ccc12` [Example 437, 4-(2,3′-DICHLORO-5-METHOXY-[1,1′-BIPHENYL]-4-YL)-N-(PYRIMIDIN-2-YL)QUINAZOLINE-7-SULFONAMIDE] was tested, and the IC50 [1] was 72 nM.

`COc1cc(-c2cc(F)cc(F)c2)c(C)cc1-c1ncnc2cc(S(=O)(=O)Nc3ncccn3)ccc12` [Example 438, 4-(3′,5′-DIFLUORO-5-METHOXY-2-METHYL-[1,1′-BIPHENYL]-4-YL)-N-(PYRIMIDIN-2-YL)QUINAZOLINE-7-SULFONAMIDE] gave an IC50 [1] of 94 nM.

`COc1cc(-c2cccc(Cl)c2)c(C)cc1-c1ncnc2cc(S(=O)(=O)Nc3ncccn3)ccc12` [Example 440, 4-(3′-CHLORO-5-METHOXY-2-METHYL-[1,1′-BIPHENYL]-4-YL)-N-(PYRIMIDIN-2-YL)QUINAZOLINE-7-SULFONAMIDE] gave an IC50 [1] of 65 nM.

With `COc1cc(-c2cccc(F)c2)c(Cl)cc1-c1c(OC)nnc2cc(S(=O)(=O)Nc3ccon3)ccc12` [Example 445, 4-(2-CHLORO-3′-FLUORO-5-METHOXY-[1,1′-BIPHENYL]-4-YL)-N-(ISOXAZOL-3-YL)-3-METHOXYCINNOLINE-7-SULFONAMIDE] the IC50 [1] was 107 nM.

`COc1cc(-c2cccc(F)c2)c(Cl)cc1-c1c(N)nnc2cc(S(=O)(=O)Nc3ccon3)ccc12` [Example 446, 3-AMINO-4-(2-CHLORO-3′-FLUORO-5-METHOXY-[1,1′-BIPHENYL]-4-YL)-N-(ISOXAZOL-3-YL)CINNOLINE-7-SULFONAMIDE] gave an IC50 [1] of 28 nM.

Molecule `COc1cc(-c2cc(F)cc(Cl)c2)c(F)cc1-c1c[nH]c(=O)c2cc(S(=O)(=O)Nc3ccon3)ccc12` [Example 451, 4-(3′-CHLORO-2,5′-DIFLUORO-5-METHOXY-[1,1′-BIPHENYL]-4-YL)-N-(ISOXAZOL-3-YL)-1-OXO-1,2-DIHYDROISOQUINOLINE-7-SULFONAMIDE] has an IC50 [1] of 77 nM.

In the case of `COc1cc(-c2ccc(Cl)c(C)c2)c(F)cc1-c1c[nH]c(=O)c2cc(S(=O)(=O)Nc3ccon3)ccc12` [Example 452, 4-(4′-CHLORO-2-FLUORO-5-METHOXY-3′-METHYL-[1,1′-BIPHENYL]-4-YL)-N-(ISOXAZOL-3-YL)-1-OXO-1,2-DIHYDROISOQUINOLINE-7-SULFONAMIDE], the IC50 [1] is reported as 184 nM.

With `COc1cc(-c2cc(F)cc(Cl)c2)c(F)cc1-c1cn(C)c(=O)c2cc(S(=O)(=O)Nc3ccon3)ccc12` [Example 453, 4-(3′-CHLORO-2,5′-DIFLUORO-5-METHOXY-[1,1′-BIPHENYL]-4-YL)-N-(ISOXAZOL-3-YL)-2-METHYL-1-OXO-1,2-DIHYDROISOQUINOLINE-7-SULFONAMIDE] the IC50 [1] was 48 nM.

`COc1cc(-c2ccc(Cl)c(C)c2)c(F)cc1-c1cn(C)c(=O)c2cc(S(=O)(=O)Nc3ccon3)ccc12` [Example 454, 4-(4′-CHLORO-2-FLUORO-5-METHOXY-3′-METHYL-[1,1′-BIPHENYL]-4-YL)-N-(ISOXAZOL-3-YL)-2-METHYL-1-OXO-1,2-DIHYDROISOQUINOLINE-7-SULFONAMIDE] gave an IC50 [1] of 51 nM.

For `COc1cc(-c2cccc(F)c2)c(Cl)cc1-c1ncnc2cc(S(=O)(=O)Nc3ccc(F)cn3)ccc12` [Example 479], the IC50 [1] was 221 nM.

In the case of `COc1cc(F)c(-c2ccc(F)nc2)cc1-c1nccc2cc(S(=O)(=O)Nc3ccon3)ccc12` [Example 497, 1-(4-fluoro-5-(6-fluoro-3-pyridinyl)-2-methoxyphenyl)-N-3-isoxazolyl-6-isoquinolinesulfonamide], the IC50 [1] is reported as 479 nM.

`CCOc1ccc(-c2cc(OC)c(-c3ncnc4cc(S(=O)(=O)Nc5ccon5)ccc34)cc2F)cc1C` [Example 535, 4-(4′-ethoxy-2-fluoro-5-methoxy-3′-methyl-4-biphenylyl)-N-3-isoxazolyl-7-quinazolinesulfonamide] showed an IC50 [1] of 610 nM.

`COc1cc(-c2cc(C)cc(C)c2)c(F)cc1-c1ncnc2cc(S(=O)(=O)Nc3ccon3)ccc12` [Example 536, 4-(2-fluoro-5-methoxy-3′,5′-dimethyl-4-biphenylyl)-N-3-isoxazolyl-7-quinazolinesulfonamide] showed an IC50 [1] of 51 nM.

`COc1cc(Cl)cc(-c2cc(OC)c(-c3ncnc4cc(S(=O)(=O)Nc5ccon5)ccc34)cc2F)c1` [Example 537, 4-(3′-chloro-2-fluoro-5,5′-dimethoxy-4-biphenylyl)-N-3-isoxazolyl-7-quinazolinesulfonamide] gave an IC50 [1] of 36 nM.

For `COc1cc(-c2cccc(Cl)c2)cc(F)c1-c1nccc2cc(S(=O)(=O)Nc3ccon3)ccc12` [Example 538, 1-(3′-chloro-3-fluoro-5-methoxy-4-biphenylyl)-N-3-isoxazolyl-6-isoquinolinesulfonamide], the IC50 [1] was 298 nM.

In the case of `COc1cc(-c2ccc(C(F)(F)F)cc2)c(F)cc1-c1nccc2cc(S(=O)(=O)Nc3ccon3)ccc12` [Example 539, 1-(2-fluoro-5-methoxy-4′-(trifluoromethyl)-4-biphenylyl)-N-3-isoxazolyl-6-isoquinolinesulfonamide], the IC50 [1] is reported as 237 nM.

Work on `COc1cc(-c2cccc(C(F)(F)F)c2)c(F)cc1-c1c2ccc(S(=O)(=O)Nc3ccon3)cc2cc(=O)n1C` [Example 546, 1-(2-fluoro-5-methoxy-3′-(trifluoromethyl)-4-biphenylyl)-N-3-isoxazolyl-2-methyl-3-oxo-2,3-dihydro-6-isoquinolinesulfonamide] yielded an IC50 [1] of 29 nM.

For `COc1cc(-c2cc(F)cc(Cl)c2)c(F)cc1-c1[nH]c(=O)cc2cc(S(=O)(=O)Nc3ccon3)ccc12` [Example 547, 1-(3′-chloro-2,5′-difluoro-5-methoxy-4-biphenylyl)-N-3-isoxazolyl-3-oxo-2,3-dihydro-6-isoquinolinesulfonamide], the IC50 [1] was 20 nM.

Molecule `COc1cc(-c2ccc(Cl)c(C)c2)c(F)cc1-c1[nH]c(=O)cc2cc(S(=O)(=O)Nc3ccon3)ccc12` [Example 548, 1-(4′-chloro-2-fluoro-5-methoxy-3′-methyl-4-biphenylyl)-N-3-isoxazolyl-3-oxo-2,3-dihydro-6-isoquinolinesulfonamide] has an IC50 [1] of 16 nM.

With `COc1cc(-c2ccc(Cl)c(C)c2)c(F)cc1-c1c(=O)[nH]cc2cc(S(=O)(=O)Nc3ccon3)ccc12` [Example 549, 4-(4′-chloro-2-fluoro-5-methoxy-3′-methyl-4-biphenylyl)-N-3-isoxazolyl-3-oxo-2,3-dihydro-7-isoquinolinesulfonamide] the IC50 [1] was 8 nM.

`COc1cc(-c2cc(F)cc(Cl)c2)c(F)cc1-c1c(=O)[nH]cc2cc(S(=O)(=O)Nc3ccon3)ccc12` [Example 550, 4-(3′-chloro-2,5′-difluoro-5-methoxy-4-biphenylyl)-N-3-isoxazolyl-3-oxo-2,3-dihydro-7-isoquinolinesulfonamide] showed an IC50 [1] of 6 nM.

`COc1cc(-c2cccc(F)c2)c(Cl)cc1-c1[nH]c(=O)cc2cc(S(=O)(=O)Nc3ncccn3)ccc12` [Example 553, 1-(2-chloro-3′-fluoro-5-methoxy-4-biphenylyl)-3-oxo-N-2-pyrimidinyl-2,3-dihydro-6-isoquinolinesulfonamide] gave an IC50 [1] of 45 nM.

`COc1cc(-c2ccc(F)c(C3CC3)c2)c(C)cc1-c1ncnc2cc(S(=O)(=O)Nc3ccon3)ccc12` [Example 554, 4-(3′-cyclopropyl-4′-fluoro-5-methoxy-2-methyl-4-biphenylyl)-N-3-isoxazolyl-7-quinazolinesulfonamide] gave an IC50 [1] of 34 nM.
